The text below walks through data of publication PMC7143535, “Synthesis, Pharmacological and Structural Characterization of Novel Conopressins from Conus miliaris” (Marine Drugs, 2020).

Like-named read-outs stand apart in the source and are kept apart here. Residues, ends and D or L forms follow the SMILES beside them.

The target of assay [1] is T1, human oxytocin receptor (hOTR) (Homo sapiens, UniProt P30559).
T1 construct: host or cells: COS-1
T1 sequence (P30559 1-389): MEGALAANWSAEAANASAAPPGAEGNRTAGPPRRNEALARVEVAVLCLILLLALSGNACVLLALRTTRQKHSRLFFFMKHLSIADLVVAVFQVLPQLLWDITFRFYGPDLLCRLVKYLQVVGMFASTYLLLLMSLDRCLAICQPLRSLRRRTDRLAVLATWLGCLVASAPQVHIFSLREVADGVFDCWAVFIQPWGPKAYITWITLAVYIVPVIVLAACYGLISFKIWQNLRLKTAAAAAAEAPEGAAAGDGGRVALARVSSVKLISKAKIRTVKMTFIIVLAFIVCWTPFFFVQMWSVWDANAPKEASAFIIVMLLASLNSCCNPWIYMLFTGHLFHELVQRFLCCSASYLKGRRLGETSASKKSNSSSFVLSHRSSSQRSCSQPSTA
The assay is described as follows: cell-based. The class given is cell-based.

In assay [2] the target is T2, human vasopressin-1a receptor (hV1aR) (Homo sapiens, UniProt P37288).
T2 construct: host or cells: COS-1
T2 sequence (P37288 whole entry): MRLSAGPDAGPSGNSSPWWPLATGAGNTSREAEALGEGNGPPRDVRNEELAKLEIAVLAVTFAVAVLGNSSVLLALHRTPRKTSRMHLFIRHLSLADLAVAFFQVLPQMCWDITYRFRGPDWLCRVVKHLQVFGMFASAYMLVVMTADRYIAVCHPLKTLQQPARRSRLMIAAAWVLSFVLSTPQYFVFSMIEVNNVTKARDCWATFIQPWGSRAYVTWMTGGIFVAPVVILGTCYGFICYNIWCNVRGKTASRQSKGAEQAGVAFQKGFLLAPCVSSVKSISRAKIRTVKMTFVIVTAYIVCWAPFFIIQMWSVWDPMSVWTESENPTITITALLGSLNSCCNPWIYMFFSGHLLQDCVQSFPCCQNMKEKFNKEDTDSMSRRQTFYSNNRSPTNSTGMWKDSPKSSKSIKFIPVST
Briefly: cell-based.

In assay [3] the target is T3, zebrafish oxytocin/isotocin receptor (ZF oxy/isoR) (Danio rerio, UniProt E4W699).
T3 construct: host or cells: COS-1
T3 sequence (E4W699 1-388): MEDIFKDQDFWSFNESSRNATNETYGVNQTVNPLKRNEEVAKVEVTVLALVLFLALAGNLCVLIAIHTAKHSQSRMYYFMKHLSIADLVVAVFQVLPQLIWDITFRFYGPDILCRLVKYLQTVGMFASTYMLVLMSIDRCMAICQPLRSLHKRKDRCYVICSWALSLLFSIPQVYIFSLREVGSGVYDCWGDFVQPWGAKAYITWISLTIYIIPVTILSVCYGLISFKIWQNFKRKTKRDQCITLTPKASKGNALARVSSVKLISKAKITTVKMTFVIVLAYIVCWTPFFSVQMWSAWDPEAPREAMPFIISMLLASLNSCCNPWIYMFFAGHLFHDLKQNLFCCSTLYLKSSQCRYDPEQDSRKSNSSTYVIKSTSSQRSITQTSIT
Briefly: cell-based. Type of assay: cell-based.

The target in assay [4] is T4, human vasopressin2 receptor (hV2R) (Homo sapiens, UniProt P30518).
T4 construct: host or cells: COS-1
T4 sequence (P30518 whole entry): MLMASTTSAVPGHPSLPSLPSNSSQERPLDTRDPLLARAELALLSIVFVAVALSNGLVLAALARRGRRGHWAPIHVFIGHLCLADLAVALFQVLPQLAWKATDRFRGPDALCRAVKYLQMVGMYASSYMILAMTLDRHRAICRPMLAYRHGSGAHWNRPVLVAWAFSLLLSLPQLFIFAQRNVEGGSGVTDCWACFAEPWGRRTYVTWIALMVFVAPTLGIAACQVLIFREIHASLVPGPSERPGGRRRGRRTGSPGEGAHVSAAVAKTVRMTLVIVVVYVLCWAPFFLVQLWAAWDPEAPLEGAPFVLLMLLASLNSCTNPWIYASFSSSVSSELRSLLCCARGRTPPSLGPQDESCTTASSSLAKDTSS
Briefly: cell-based.

Assay [5] relates to zebrafish vasopressin2 receptor (ZF V2R). The class given is cell-based, zebrafish (Danio rerio).
The target in assay [6] is zebrafish vasopressin1-a1 receptor (ZF V1a1R). Type of assay: cell-based, zebrafish (Danio rerio).
The target of assay [7] is T5, human vasopressin-1b receptor (hV1bR) (Homo sapiens, UniProt P47901).
T5 construct: host or cells: COS-1
T5 sequence (P47901 1-424): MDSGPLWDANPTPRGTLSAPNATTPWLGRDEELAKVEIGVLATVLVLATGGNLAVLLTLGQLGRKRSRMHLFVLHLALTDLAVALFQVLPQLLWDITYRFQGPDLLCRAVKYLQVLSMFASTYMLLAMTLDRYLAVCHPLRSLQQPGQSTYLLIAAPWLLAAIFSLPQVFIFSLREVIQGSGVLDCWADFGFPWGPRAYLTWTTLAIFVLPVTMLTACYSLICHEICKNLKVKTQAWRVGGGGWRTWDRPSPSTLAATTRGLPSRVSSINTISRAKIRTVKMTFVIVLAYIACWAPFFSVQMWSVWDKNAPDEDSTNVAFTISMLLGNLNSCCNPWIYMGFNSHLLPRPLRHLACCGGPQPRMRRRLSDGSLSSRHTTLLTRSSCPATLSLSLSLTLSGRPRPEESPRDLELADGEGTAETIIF
The assay is described as follows: cell-based. Type of assay: cell-based.

Assay [8] concerns the target zebrafish vasopressin1-a2 receptor (ZF V1a2R). The class given is cell-based, zebrafish (Danio rerio).

For the compound `CC[C@H](C)[C@@H]1NC(=O)[C@H](Cc2ccc(O)cc2)NC(=O)[C@@H](N)CSSC[C@@H](C(=O)N2CCC[C@H]2C(=O)N[C@@H](CCCNC(=N)N)C(=O)NCC(N)=O)NC(=O)[C@H](CC(N)=O)NC(=O)[C@H](CCC(N)=O)NC1=O` [Vasotocin, vasotocin] (HELM PEPTIDE1{C.Y.I.Q.N.C.P.R.G.[am]}$PEPTIDE1,PEPTIDE1,1:R3-6:R3$$$V2.0; N-terminus assumed), the EC50 stood at 1.62 nM in assay [1]; 15.9 nM in assay [2]; 0.85 nM in assay [3]; 0.5 nM in assay [4]; 5000 nM in assay [5] (read-out: EC50 / affinity at ZF V2R); 5.07 nM in assay [5] (read-out: Mean EC50 ZF V2R). Moreover, the EC50 worked out at 0.41 nM in assay [6], 4.26 nM in assay [7] and 2.77 nM in assay [8]. Also, in assay [1], the “Selectivity hOTR” value is reported as “hV2R (x28945.5) > ZF V1a1R (x38.8) > ZF oxy (x18.7) > hOTR(x9.8) > ZF V1a2R (x5.7) > hV1bR (x3.7) > ZF V2R (x3.1) > hV1aR”. The “Selectivity ZF oxy” value in assay [3] is on record as “hV2R (x28945.5) > ZF V1a1R (x38.8) > ZF oxy (x18.7) > hOTR(x9.8) > ZF V1a2R (x5.7) > hV1bR (x3.7) > ZF V2R (x3.1) > hV1aR”. Besides, in assay [4], the “Selectivity hV2R” value is given as “hV2R (x28945.5) > ZF V1a1R (x38.8) > ZF oxy (x18.7) > hOTR(x9.8) > ZF V1a2R (x5.7) > hV1bR (x3.7) > ZF V2R (x3.1) > hV1aR”. In addition, the “fold more potent on hV2R than on ZF V2R” value in assay [4] is ~10,000 fold. The “Selectivity ZF V2R” value in assay [5] is listed as “hV2R (x28945.5) > ZF V1a1R (x38.8) > ZF oxy (x18.7) > hOTR(x9.8) > ZF V1a2R (x5.7) > hV1bR (x3.7) > ZF V2R (x3.1) > hV1aR”. The “Selectivity ZF V1a1R” value in assay [6] is reported as “hV2R (x28945.5) > ZF V1a1R (x38.8) > ZF oxy (x18.7) > hOTR(x9.8) > ZF V1a2R (x5.7) > hV1bR (x3.7) > ZF V2R (x3.1) > hV1aR”. For the same compound, the “Selectivity hV1bR” value in assay [7] is listed as “hV2R (x28945.5) > ZF V1a1R (x38.8) > ZF oxy (x18.7) > hOTR(x9.8) > ZF V1a2R (x5.7) > hV1bR (x3.7) > ZF V2R (x3.1) > hV1aR”. In assay [8], the “Selectivity ZF V1a2R” value is “hV2R (x28945.5) > ZF V1a1R (x38.8) > ZF oxy (x18.7) > hOTR(x9.8) > ZF V1a2R (x5.7) > hV1bR (x3.7) > ZF V2R (x3.1) > hV1aR”.
